In brackets after ≈: the same amount, converted by molar mass.
What was measured:
Type in all cases: functional
Escherichia coli = test: Antibacterial activity against Escherichia coli assessed as reduction in bacterial growth incubated for 20 hrs by broth microdilution assay
Staphylococcus aureus [1] = test: Antibacterial activity against methicillin resistant Staphylococcus aureus assessed as reduction in bacterial growth incubated for 20 hrs by broth microdilution assay
Staphylococcus aureus [2] = test: Antibacterial activity against methicillin susceptible Staphylococcus aureus assessed as reduction in bacterial growth incubated for 20 hrs by broth microdilution assay
Bacillus subtilis = test: Antibacterial activity against Bacillus subtilis assessed as reduction in bacterial growth incubated for 20 hrs by broth microdilution assay

SMILES	MIC50 (Escherichia coli)	MIC50 (Staphylococcus aureus [1])	MIC (Staphylococcus aureus [2])	MIC50 (Staphylococcus aureus [2])	MIC (Bacillus subtilis)	MIC (Staphylococcus aureus [1])
C=C(C)[C@@H]1CC[C@](C)(O)[C@H](C2=C(O)C(CC=C(C)C)(CC=C(C)C)C(=O)C(C(=O)CC(C)C)=C2O)C1	> 64 µM	2 µM (≈ 0.997 µg/mL)	1 to 2 µM (≈ 0.499 to 0.997 µg/mL)	2 µM (≈ 0.997 µg/mL)	2 µM (≈ 0.997 µg/mL)	–
CC(C)=CCC1(CC=C(C)C)C(=O)C(C(=O)CC(C)C)=C(O)C([C@@H]2C=C(C(C)C)CC[C@]2(C)O)=C1O	> 64 µM	4 µM (≈ 1.99 µg/mL)	4 µM (≈ 1.99 µg/mL)	4 µM (≈ 1.99 µg/mL)	4 µM (≈ 1.99 µg/mL)	4 to 8 µM (≈ 1.99 to 3.99 µg/mL)
CCC(C)C(=O)C1=C(O)C([C@@H]2C=C(C(C)C)CC[C@]2(C)O)=C(O)C(CC=C(C)C)(CC=C(C)C)C1=O (stereo partly specified)	> 64 µM	8 µM (≈ 3.99 µg/mL)	4 to 8 µM (≈ 1.99 to 3.99 µg/mL)	8 µM (≈ 3.99 µg/mL)	4 µM (≈ 1.99 µg/mL)	–

— ChEMBL document CHEMBL4414611, “Hypascyrins A-E, Prenylated Acylphloroglucinols from Hypericum ascyron” (2019)
